Read-outs that look alike come from different tables or passages of the source.
Key:
[1] = Hydrolysis Assay - Condition 1 (SGF); type: physicochemical; conditions: Condition 1: SGF with pepsin pH 1.5, 37° C., 0.5 mM
Procedure: 50 uL of compound (10 mM) in DMSO was diluted into 950 uL of Simulated Gastric Fluid (SGF) with pepsin (pH 1.5) to a final concentration of 0.5 mM. The hydrolysis kinetics were conducted at 37° C. and measured by LCMS at a certain time interval.
(§1) The corresponding LCMS chromatogram were recorded and the conversions were calculated by integration of each peak.
(§2) • 1) LCMS spectra were obtained using Agilent 1200G1956A or SHIMADZU LCMS-2020. • Standard LCMS conditions were as follows (running time 1.55 minutes): • Acidic condition: Mobile Phase A: 0.0375% TFA in water (v/v). Mobile Phase B: 0.01875% TFA in acetonitrile (v/v); Column: Kinetex EVO C18 30*2.1 mm, 5 μm. • Basic condition: Mobile Phase A: 0.025% NH3·H2O in water (v/v). Mobile Phase B: Acetonitrile; Column: Kinetex EVO C18 2.1×30 mm, 5 μm. • 2) Conversion (%)=peak area 1/(peak area 1+peak area 2)*100%, peak area 1 is the integration of hydrolyzed product, peak area 2 is the integration of starting material.

[2] = Hydrolysis Assay - Condition 2 (DI Water); type: physicochemical; conditions: 25° C., 0.5 mM
Procedure: 50 uL of compound (10 mM) in DMSO was diluted into 950 uL of DI water to a final concentration of 0.5 mM. The hydrolysis kinetics were conducted at 25° C. and measured by LCMS at a certain time interval.
as §1, §2

[3] = Plasma Stability Assay (Example A2), mouse plasma; type: in vitro ADME; conditions: Mouse Plasma, 37° C., prodrug remaining
Procedure: (§3) Each test was carried out in duplicate for each time point; 0 min, 15 min, 30 min, 60 min, 120, 240 min. […]

[4] = Plasma Stability Assay (Example A2), human plasma; type: in vitro ADME; conditions: 37° C., prodrug remaining
Procedure: as §3

[5] = Plasma Stability Assay (Example A3), rat plasma; type: in vitro ADME; conditions: 10 μM, 37° C., prodrug remaining
Description: (§4) The data is represented in the table below.

[6] = Plasma Stability Assay (Example A3), human plasma; type: in vitro ADME; conditions: 10 μM, 37° C., prodrug remaining
Description: as §4

[7] = Metabolic Stability in Human Hepatocytes; type: in vitro ADME; conditions: cryopreserved human hepatocytes, 5×10^5 viable cells/mL, 37° C.
Procedure: A 2.5 uL aliquot of 100 μM test compound was incubated with 247.5 uL of cryopreserved hepatocytes suspended in serum-free incubation medium at 5×10^5 viable cells/mL. The mixture was incubated at 37° C. and shaken at 500 rpm for the designated time points (0.5, 15, 30, 60, 90, or 120 min). At each time point, 25 μL aliquot of incubation mixture was transferred to 125 μL of cold acetonitrile containing internal standard, followed by centrifugation for 30 min at 3,220 g. 100 μL of supernatant was mixed with 100 μL of distilled water for analysis by LC-MS/MS. Peak areas were determined from extracted ion chromatograms and in vitro half-life (t1/2) was determined from the concentration vs time regression slope, in vitro t1/2=0.693/k. Conversion of the in vitro t1/2 (in min) into the in vitro intrinsic clearance (in vitro CLint, in μL/min/10^6 cells) is done using: in vitro CLint=kV/N.

in vivo = type: in vivo, male C57BL/6 mice; conditions: 321 IV 2 mg/kg, mice
Procedure: Total fifteen male mice were used in this study with n=3 mice/time point with sparse sampling study design. Animals were administered through intravenous route with solution formulation of 321 at 2 mg/kg dose.
The extraction procedure for plasma/brain samples and the spiked plasma/brain calibration standards were identical (PMSF Stabilized Plasma and Brain used for Preparation of calibration standards): A 20 μL of study sample plasma/brain or spiked plasma/brain calibration standard was added to individual pre-labeled micro-centrifuge tubes followed by 200 μL of internal standard prepared in acetonitrile (Rosuvastatin, 50 ng/mL) was added except for blank, where 200 μL of acetonitrile was added. Samples were vortexed for 5 minutes. Samples were centrifuged for 10 minutes at a speed of 4000 rpm at 4° C. Following centrifugation, 200 μL of clear supernatant was transferred in 96 well plates and analyzed using LC-MS/MS.
Brain samples were diluted (1-part of tissue: 2-part of buffer) and homogenized. The homogenate was submitted for bioanalysis and the concentrations (ng/mL) received were corrected with dilution factor (3×) and the final reported concentrations were represented in ng/g.
The plasma and brain concentration-time data of 321 and 001 were used for the pharmacokinetic analysis.

[8] = male, C57BL/6, mouse, in vivo, 321, read-out: Brain concentrations (mean)
[9] = male, C57BL/6, mouse, in vivo, 321, read-out: Plasma concentrations (mean)

Structure (SMILES): COc1ccc([C@@]23CCC(OP(=O)(OC(C)C)OC(C)C)=C[C@@H]2N(C)CC3)cc1OC [Compound 321, [(3aS,7aS)-3a-(3,4-dimethoxyphenyl)-1-methyl-3,4,5,7a-tetrahydro-2H-indol-6-yl]diisopropyl phosphate]
- Conversion (%) ([1]; 1 min): 0%
- Conversion (%) ([1]; 5 min): 0%
- Conversion (%) ([1]; 30 min): 0%
- Conversion (%) ([1]; 1 h): 0%
- Conversion (%) ([1]; 4 h): 0%
- Conversion (%) ([1]; 24 h): 0%
- Conversion (%) ([2]; 1 min): 0%
- Conversion (%) ([2]; 5 min): 0%
- Conversion (%) ([2]; 30 min): 0%
- Conversion (%) ([2]; 1 h): 0%
- Conversion (%) ([2]; 4 h): 0%
- Conversion (%) ([2]; 24 h): 0%
- Prodrug (%) ([3]; 0 min): 100%
- Prodrug (%) ([3]; 15 min): 77.3%
- Prodrug (%) ([3]; 30 min): 74.5%
- Prodrug (%) ([3]; 60 min): 58.4%
- Prodrug (%) ([3]; 120 min): 43.1%
- Prodrug (%) ([3]; 240 min): 31.7%
- Prodrug (%) ([4]; 0 min): 100%
- Prodrug (%) ([4]; 15 min): >99%
- Prodrug (%) ([4]; 30 min): >99%
- Prodrug (%) ([4]; 60 min): >99%
- Prodrug (%) ([4]; 120 min): >99%
- Prodrug (%) ([4]; 240 min): 78.2%
- Prodrug (%) ([5]; 0 min): 100.0%
- Prodrug (%) ([5]; 10 min): 74.0%
- Prodrug (%) ([5]; 30 min): 69.8%
- Prodrug (%) ([5]; 60 min): 69.2%
- Prodrug (%) ([5]; 120 min): 68.4%
- Prodrug (%) ([5]; 240 min): 65.7%
- Prodrug (%) ([6]; 0 min): 100.0%
- Prodrug (%) ([6]; 10 min): >99%
- Prodrug (%) ([6]; 30 min): >99%
- Prodrug (%) ([6]; 60 min): 98.1%
- Prodrug (%) ([6]; 120 min): 94.5%
- Prodrug (%) ([6]; 240 min): 96.3%
- t1/2 [7]: 23 min
- Brain-Kp (in vivo; 321): 0.28
- brain concentrations quantifiable up to (in vivo; 321): ≤ 0.5 h
- plasma concentrations quantifiable up to (in vivo; 321): up to 2 h
- T1/2 (in vivo; 321 in Brain): 6.6 min
- Vss (in vivo; 321 in Brain): 10.34 L/kg
- CL (in vivo; 321 in Brain, marked NR (not reportable)): NR (1154.07) mL/min/kg
- AUClast (in vivo; 321 in Plasma): 97.14 ng·h/mL
- C0 (back extrapolated concentration) (in vivo; 321 in Plasma): 503.64 ng/mL
- CL (in vivo; 321 in Plasma): 340.73 mL/min/kg
- T1/2 (in vivo; 321 in Plasma): 21.6 min
- Vss (in vivo; 321 in Plasma): 4.80 L/kg
- concentration at 0.08 h (in vivo; [8]): 99.6 ng/g
- concentration at 0.08 h (in vivo; [9]): 305 ng/mL
- concentration at 0.25 h (in vivo; [8]): 37.1 ng/g
- concentration at 0.25 h (in vivo; [9]): 105 ng/mL
- concentration at 0.5 h (in vivo; [8]): 7.89 ng/g
- concentration at 0.5 h (in vivo; [9]): 26.2 ng/mL
- concentration at 1 h (in vivo; male, C57BL/6, mouse, in vivo, 321, 1 h, read-out: Plasma concentrations (mean)): 8.57 ng/mL
- concentration at 2 h (in vivo; male, C57BL/6, mouse, in vivo, 321, 2 h, average of two values, read-out: Plasma concentrations (mean)): 1.38 ng/mL

— patent US20260015322A1, “DELIVERY OF THERAPEUTIC ALKALOID COMPOUNDS” (priority 2022, published 2026)
